Data reported in patent US20170106101A1, “METHODS INVOLVING MACROPHAGE TUMOR CELL FUSION HYBRIDS” (OREGON HEALTH & SCIENCE UNIVERSITY, priority 2015, published 2017).

Experiments:
Assay type in all cases: cell-based, mouse
[1] = system: MC38-derived fusion hybrids; test: Transwell chemotaxis assay towards ligand; conditions: ligand 25 ng/ml
Method: (§1) Chemotaxis assay. Chemotaxis assays were performed using IncuCyte™ Chemotaxis Cell Migration Assay (Essen) with at least three technical replicates of triplicate samples. Briefly, 1000 cancer cells were plated in the top wells in DMEM+0.2% FBS after incubation in serum-free media for 20 h. Csf1 or Sdf1 ligand (25 ng/mL) was added to the bottom well and cells were incubated at 37° C. for at least 36 hours with live-imaging. The neutralizing antibodies to the Csf1R (eBioscience), Cxcr4 (Biolegend) and isotype control antibody were added to the top and bottom well (2.5 ng/μL). Migration was quantified by measuring phase contrast area of the top and bottom wells for each timepoint using IncuCyte ZOOM® software. Triplicates of each condition were performed, and the means and standard deviations were calculated. p<0.02 for hybrids treated with Csf1 or Sdf1 relative to hybrids without Csf1 or Sdf1 by unpaired t-test. Two independent hybrid isolates were analyzed. Technical octupulicates (MC38) or sextuplicates (B16F10) with biologic quadruplicates or triplicates were analyzed. For inhibitor studies technical duplicates with biologic triplicates were analyzed.

[2] = system: unfused MC38 cancer cells; test: Transwell chemotaxis assay towards ligand; conditions: ligand 25 ng/ml
Method: as §1

[3] = system: MC38-derived hybrid cells; test: Growth responsiveness to cytokines and soluble factors (MTS, confluence, viability); conditions: increasing concentrations of cytokine; MC38-derived hybrids
Method: (§2) In vitro-derived hybrid proliferation. For phenotypic profiling growth responsiveness to cytokines and soluble factors, 95 different cytokines or soluble signaling molecules were distributed at high, medium and low concentrations in 384 well plates, in 25 μl of RPMI (Life Technologies, NY) supplemented with 1% FBS; and 25 μl of a 1.2×10^4 cells/ml suspension of hybrid or MC-38 cells in DMEM+4% FBS was added to each well. 99 wells of each plate were left cytokine-free and no cells were added to two of these wells, which served to provide measurements of background signal. Plates were cultured in a humidified incubator for 72 hours, after which 5 ul of MTS reagent was added to each well. Two hours later, absorbance at 490 nm was read with a 384-well plate reader. For each plate, absorbance values for each cytokine-treated well were normalized to the mean absorbance of the cytokine-free wells on that plate, and expressed in terms of standard deviations from the cytokine-free mean. Three independent hybrid isolates and three MC38 replicates were analyzed. […] In these experiments, 2.5×10^4 hybrid or MC38 cells were plated in the presence of three different concentrations for each soluble factor, or in media alone (DMEM+2.5% FBS), in triplicate for each condition. Plates were imaged every two hours for 90 hours, and then cell viability was assessed.

MC38 cells = test: as above; conditions: increasing concentrations of cytokine
Method: as §2

[4] = system: B16F10 cancer cell hybrids; test: Transwell chemotaxis assay towards ligand; conditions: ligand 25 ng/ml
Method: as §1

In the case of “Sdf1: strongly chemotactic lymphocyte cytokine, ligand of Cxcr4”, the “migration of fusion hybrids towards ligand” value [1] is reported as “migrated towards” and the “migration of unfused MC38 cells towards ligand” value [2] is reported as “incapable of responding”.

For Tnf-α, the “effect on hybrid proliferation / growth” value [3] was “resistant” and the “effect on MC38 proliferation / growth” value (MC38 cells) was “profound inhibitory effect”.

B1: Hgf: Hepatic growth factor, cytokine tested for growth effect on MC38 and hybrid cells (protein, UniProt Q08048 33-495; Q08048 496-728, looked up)
Hepatocyte growth factor …: QKKRRNTLHEFKKSAKTTLTKEDPLLKIKTKKVNSADECANRCIRNRGFTFTCKAFVFDKSRKRCYWYPFNSMSSGVKKGFGHEFDLYENKDYIRNCIIGKGGSYKGTVSITKSGIKCQPWNSMIPHEHSFLPSSYRGKDLQENYCRNPRGEEGGPWCFTSNPEVRYEVCDIPQCSEVECMTCNGESYRGPMDHTESGKTCQRWDQQTPHRHKFLPERYPDKGFDDNYCRNPDGKPRPWCYTLDPDTPWEYCAIKTCAHSAVNETDVPMETTECIQGQGEGYRGTSNTIWNGIPCQRWDSQYPHKHDITPENFKCKDLRENYCRNPDGAESPWCFTTDPNIRVGYCSQIPKCDVSSGQDCYRGNGKNYMGNLSKTRSGLTCSMWDKNMEDLHRHIFWEPDASKLNKNYCRNPDDDAHGPWCYTGNPLIPWDYCPISRCEGDTTPTIVNLDHPVISCAKTKQLR
Hepatocyte growth factor beta …: VVNGIPTQTTVGWMVSLKYRNKHICGGSLIKESWVLTARQCFPARNKDLKDYEAWLGIHDVHERGEEKRKQILNISQLVYGPEGSDLVLLKLARPAILDNFVSTIDLPSYGCTIPEKTTCSIYGWGYTGLINADGLLRVAHLYIMGNEKCSQHHQGKVTLNESELCAGAEKIGSGPCEGDYGGPLICEQHKMRMVLGVIVPGRGCAIPNRPGIFVRVAYYAKWIHKVILTYKL
With B1 the “effect on MC38 proliferation / growth” value (MC38 cells) was “moderate, dose-dependent growth-suppressing effect”.

B2: Csf1: ligand of colony stimulating factor 1 receptor, used as chemoattractant (protein, UniProt P07141 33-552, looked up)
Macrophage colony-stimulating …: KEVSEHCSHMIGNGHLKVLQQLIDSQMETSCQIAFEFVDQEQLDDPVCYLKKAFFLVQDIIDETMRFKDNTPNANATERLQELSNNLNSCFTKDYEEQNKACVRTFHETPLQLLEKIKNFFNETKNLLEKDWNIFTKNCNNSFAKCSSRDVVTKPDCNCLYPKATPSSDPASASPHQPPAPSMAPLAGLAWDDSQRTEGSSLLPSELPLRIEDPGSAKQRPPRSTCQTLESTEQPNHGDRLTEDSQPHPSAGGPVPGVEDILESSLGTNWVLEEASGEASEGFLTQEAKFSPSTPVGGSIQAETDRPRALSASPFPKSTEDQKPVDITDRPLTEVNPMRPIGQTQNNTPEKTDGTSTLREDHQEPGSPHIATPNPQRVSNSATPVAQLLLPKSHSWGIVLPLGELEGKRSTRDRRSPAELEGGSASEGAARPVARFNSIPLTDTGHVEQHEGSSDPQIPESVFHLLVPGIILVLLTVGGLLFYKWKWRSHRDPQTLDSSVGRPEDSSLTQDEDRQVELPV
B2 was tested, and the “migration of B16F10 hybrids towards ligand” value [4] was “low response”, the “migration of fusion hybrids towards ligand” value [1] was “migrated towards” and the “migration of unfused MC38 cells towards ligand” value [2] was “incapable of responding”.
